Earlier results on two compounds are cited in patent US20110189317A1, “Method for Inhibiting the Activity of DPP-IV and Lowering Blood Glucose Level” (Naturalendo Tech Co., Ltd., priority 2006, published 2011).

Where two headings read alike, the source gives them in different places.

For data set [1], the system named is insulin secretion. To be noted: read-out: EC50 (half-maximal effective concentration), insulin secretion.
For data set [2] the following is noted: combined administration of Metformin with LAF237 or placebo, after 52 weeks; p<0.0001.

As for “GLP-1: incretin hormone composed of total 30 amino acids, facilitates insulin secretion”, the EC50 in data set [1] is around 0.01 nM. The blood glucose level result is, setting by setting: (GLP-1 dropping for 4 hours, patients with secondary failure on oral hypoglycemic agent) “complete normalization in the blood glucose level”; (intravenously, continuously for 1 week, regular diet) “nearly normal blood glucose level”.
As to `N#C[C@@H]1CCCN1C(=O)CNC12CC3CC(CC(O)(C3)C1)C2` [LAF237], in data set [2], the HbA1c difference was 1.1±0.2%.
